Measured values: PubChem BioAssay (NCI)
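Protocol summary: plate cells (96-well), add compound at 5 concentrations, incubate 48 h, interpolate endpoints linearly. TGI is the concentration that stops growth completely.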

Legend:
Experiment in all cases: inhibition of tumour cell growth, NCI panel, 48 h
NCI-H226 lung = tested on: NCI-H226 lung
SK-MEL-28 melanoma = tested on: SK-MEL-28 melanoma
NCI-H522 lung = tested on: NCI-H522 lung
OVCAR-5 ovarian = tested on: OVCAR-5 ovarian
NCI-H23 lung = tested on: NCI-H23 lung
COLO 205 colon = tested on: COLO 205 colon
HOP-92 NSCLC = tested on: HOP-92 NSCLC
HOP-62 NSCLC = tested on: HOP-62 NSCLC
BT-549 breast = tested on: BT-549 breast
M14 melanoma = tested on: M14 melanoma
SNB-19 CNS = tested on: SNB-19 CNS

Compound | TGI (NCI-H226 lung) | TGI (SK-MEL-28 melanoma) | TGI (NCI-H522 lung) | TGI (OVCAR-5 ovarian) | TGI (NCI-H23 lung) | TGI (COLO 205 colon) | TGI (HOP-92 NSCLC) | TGI (HOP-62 NSCLC) | TGI (BT-549 breast) | TGI (M14 melanoma) | TGI (SNB-19 CNS)
Cc1cc2c(cc1-c1cc3c(cc1C)C(C(C)C)=C(O)C(=O)/C3=C\Nc1c3ccccc3nc3ccccc13)/C(=C/Nc1c3ccccc3nc3ccccc13)C(=O)C(O)=C2C(C)C | 5.53 µM | 19.5 µM | 2.97 µM | 16.7 µM | 15 µM | 6.72 µM | 21.5 µM | 16.6 µM | 20.7 µM | 12.6 µM | 13.6 µM
O=C(CC(=O)N(C(=O)/C=C\c1ccccc1)c1ccc(Cl)cc1)N1N=C(c2ccccc2)C(N=Nc2cccc([N+](=O)[O-])c2)C1=O (centres undefined) | 55.9 µM | 98.1 µM |  | > 100 µM | 40.2 µM | 14.7 µM | > 100 µM | 40.8 µM | 46.9 µM | > 100 µM | > 100 µM
COC(=O)C1(C(=O)OC)Cc2ccc(OC)cc2C2=C1C(=O)c1ccccc1C2=O | 36.9 µM | 31.4 µM | 8.89 µM | 20.2 µM | 21.9 µM | 40.5 µM | 15.9 µM | 21.4 µM | 37.3 µM | 34.5 µM | 33.4 µM
CCc1c2c([nH]c(=S)c1C#N)CCC2 | > 100 µM | > 100 µM | > 100 µM | > 100 µM | > 100 µM | > 100 µM | > 100 µM | > 100 µM | > 100 µM | > 100 µM | > 100 µM
O=C1/C(=C/c2cccc(F)c2)CCCc2ccccc21 | 27.7 µM | 30.2 µM | 25.5 µM | 28.3 µM | 42.6 µM | 36.4 µM | 29.2 µM | 27.4 µM | 34.1 µM | 26.8 µM | 29.4 µM
C=CCN1C(=O)/C(=C/c2ccco2)N=C1SC/C=C/C | > 100 µM | > 100 µM | > 100 µM | > 100 µM | > 100 µM | > 100 µM | > 100 µM | > 100 µM | > 100 µM | > 100 µM | > 100 µM
CNC1=C(C)C(=O)C(=O)C([C@H](C)CCC=C(C)C)=C1O | > 72.9 µM | > 100 µM | 20.4 µM | > 100 µM | > 100 µM | > 73.7 µM | > 100 µM | > 31.6 µM | > 100 µM | > 100 µM | > 100 µM
Cc1ccc2c(c1)[nH]c(=S)n2/C=C1\C(=O)Oc2ccccc2C1=O | > 100 µM | > 100 µM | > 100 µM | > 100 µM | > 100 µM | > 100 µM | 71.5 µM | > 100 µM | > 100 µM | > 100 µM | > 100 µM
CCOC(=O)/C(C#N)=C\c1ccc(N(CCC(=O)O)CCC(=O)O)c(I)c1 | > 10 µM | > 10 µM | > 10 µM |  | > 10 µM | > 10 µM | > 10 µM | > 10 µM | > 10 µM | > 10 µM | > 10 µM
CSc1nc(C#N)c(/N=C\N(C)C)n1C | > 100 µM | > 100 µM | > 100 µM | > 100 µM | > 100 µM | > 100 µM | > 100 µM | > 100 µM | > 100 µM | > 100 µM | > 100 µM
C=CCOc1cccc(C2(O)c3ccccc3C3=NCCCN32)c1 (centres undefined) | > 31.6 µM | 24.7 µM | 41.4 µM | > 77.9 µM | > 47.2 µM | 33.5 µM | > 82.6 µM | 38.8 µM | > 100 µM | 26.1 µM | 18.4 µM
CCOP(=O)(OCC)/C(C#N)=C/c1ncc[nH]1 | > 100 µM | > 100 µM | > 100 µM | > 100 µM | > 100 µM | > 100 µM | > 100 µM | > 100 µM | > 100 µM | > 100 µM | > 100 µM
O=c1oc2ccc3ccccc3c2cc1-c1cn2ccccc2n1 | > 100 µM | > 100 µM | > 100 µM |  | > 100 µM | > 100 µM | > 100 µM | > 100 µM | > 100 µM | > 100 µM | 
O=C(O)c1nc2cc(C(F)(F)F)ccc2nc1Nc1ccc(F)cc1 | > 100 µM | > 100 µM | 75.4 µM | 93.5 µM | 38.2 µM | 37.1 µM | 39.3 µM |  | 46.9 µM | 82.4 µM | > 100 µM
O=C1C(Cl)C2(CC(/C=C/c3ccccc3Cl)=NN2c2cccc(S(=O)(=O)O)c2)N1c1nc2ccccc2s1 (centres undefined) | > 100 µM | > 100 µM | 26.9 µM | > 100 µM | > 100 µM | > 100 µM | > 100 µM |  | > 100 µM | > 100 µM | > 100 µM
Cc1cc2ccccc2n2c1nc1ccccc12 | > 100 µM | > 100 µM |  | > 100 µM | > 100 µM | > 100 µM | > 100 µM | > 100 µM | > 100 µM | > 100 µM | > 100 µM
CC(C)OC(=O)c1ccc(NCc2cc(O)ccc2O)cc1Cl | > 49.9 µM | 38.6 µM |  | 26.6 µM | 28.6 µM | 9.08 µM | 18 µM | > 64.5 µM | 1.57 µM | > 100 µM | > 22.2 µM
